± gives the expanded uncertainty stated by the source.
Test: mn = molality of the nth substance listed, in mol/kg
Settings: 100 kPa, Liquid, Falling or rolling sphere viscometry

O=P([O-])([O-])O.[K+].[K+] [dipotassium hydrogen phosphate] + O
viscosity (288.15 K, m1 = 0.01682): 1.05 ± 0.21 mPa·s | viscosity (288.15 K, m1 = 0.03476): 1.058 ± 0.21 mPa·s | viscosity (288.15 K, m1 = 0.05442): 1.066 ± 0.21 mPa·s | viscosity (288.15 K, m1 = 0.06215): 1.069 ± 0.21 mPa·s | viscosity (288.15 K, m1 = 0.08596): 1.079 ± 0.22 mPa·s | viscosity (288.15 K, m1 = 0.1633): 1.112 ± 0.22 mPa·s | viscosity (288.15 K, m1 = 0.2499): 1.149 ± 0.23 mPa·s | viscosity (288.15 K, m1 = 0.3088): 1.174 ± 0.23 mPa·s | viscosity (288.15 K, m1 = 0.4795): 1.246 ± 0.25 mPa·s | viscosity (288.15 K, m1 = 0.628): 1.309 ± 0.26 mPa·s | viscosity (288.15 K, m1 = 0.7511): 1.361 ± 0.27 mPa·s | viscosity (288.15 K, m1 = 0.8468): 1.401 ± 0.28 mPa·s | viscosity (288.15 K, m1 = 0.9565): 1.448 ± 0.29 mPa·s | viscosity (293.15 K, m1 = 0.01682): 0.9382 ± 0.19 mPa·s | viscosity (293.15 K, m1 = 0.03476): 0.9456 ± 0.19 mPa·s | viscosity (293.15 K, m1 = 0.05442): 0.9538 ± 0.19 mPa·s | viscosity (293.15 K, m1 = 0.06215): 0.957 ± 0.19 mPa·s | viscosity (293.15 K, m1 = 0.08596): 0.9669 ± 0.19 mPa·s | viscosity (293.15 K, m1 = 0.1633): 0.9989 ± 0.2 mPa·s | viscosity (293.15 K, m1 = 0.2499): 1.035 ± 0.21 mPa·s | viscosity (293.15 K, m1 = 0.3088): 1.059 ± 0.21 mPa·s | viscosity (293.15 K, m1 = 0.4795): 1.13 ± 0.23 mPa·s | viscosity (293.15 K, m1 = 0.628): 1.192 ± 0.24 mPa·s | viscosity (293.15 K, m1 = 0.7511): 1.243 ± 0.25 mPa·s | viscosity (293.15 K, m1 = 0.8468): 1.283 ± 0.26 mPa·s | viscosity (293.15 K, m1 = 0.9565): 1.328 ± 0.27 mPa·s | viscosity (298.15 K, m1 = 0.01682): 0.8385 ± 0.17 mPa·s | viscosity (298.15 K, m1 = 0.03476): 0.8455 ± 0.17 mPa·s | viscosity (298.15 K, m1 = 0.05442): 0.8532 ± 0.17 mPa·s | viscosity (298.15 K, m1 = 0.06215): 0.8562 ± 0.17 mPa·s | viscosity (298.15 K, m1 = 0.08596): 0.8655 ± 0.17 mPa·s | viscosity (298.15 K, m1 = 0.1633): 0.8957 ± 0.18 mPa·s | viscosity (298.15 K, m1 = 0.2499): 0.9296 ± 0.19 mPa·s | viscosity (298.15 K, m1 = 0.3088): 0.9526 ± 0.19 mPa·s | viscosity (298.15 K, m1 = 0.4795): 1.019 ± 0.2 mPa·s | viscosity (298.15 K, m1 = 0.628): 1.077 ± 0.22 mPa·s | viscosity (298.15 K, m1 = 0.7511): 1.126 ± 0.23 mPa·s | viscosity (298.15 K, m1 = 0.8468): 1.163 ± 0.23 mPa·s | viscosity (298.15 K, m1 = 0.9565): 1.206 ± 0.24 mPa·s | viscosity (303.15 K, m1 = 0.01682): 0.804 ± 0.16 mPa·s | viscosity (303.15 K, m1 = 0.03476): 0.8103 ± 0.16 mPa·s | viscosity (303.15 K, m1 = 0.05442): 0.8173 ± 0.16 mPa·s | viscosity (303.15 K, m1 = 0.06215): 0.82 ± 0.16 mPa·s | viscosity (303.15 K, m1 = 0.08596): 0.8284 ± 0.17 mPa·s | viscosity (303.15 K, m1 = 0.1633): 0.8556 ± 0.17 mPa·s | viscosity (303.15 K, m1 = 0.2499): 0.8861 ± 0.18 mPa·s | viscosity (303.15 K, m1 = 0.3088): 0.9068 ± 0.18 mPa·s | viscosity (303.15 K, m1 = 0.4795): 0.9669 ± 0.19 mPa·s | viscosity (303.15 K, m1 = 0.628): 1.019 ± 0.2 mPa·s | viscosity (303.15 K, m1 = 0.7511): 1.062 ± 0.21 mPa·s | viscosity (303.15 K, m1 = 0.8468): 1.096 ± 0.22 mPa·s | viscosity (303.15 K, m1 = 0.9565): 1.135 ± 0.23 mPa·s | viscosity (308.15 K, m1 = 0.01682): 0.7261 ± 0.15 mPa·s | viscosity (308.15 K, m1 = 0.03476): 0.7324 ± 0.15 mPa·s | viscosity (308.15 K, m1 = 0.05442): 0.7394 ± 0.15 mPa·s | viscosity (308.15 K, m1 = 0.06215): 0.7421 ± 0.15 mPa·s | viscosity (308.15 K, m1 = 0.08596): 0.7505 ± 0.15 mPa·s | viscosity (308.15 K, m1 = 0.1633): 0.7777 ± 0.16 mPa·s | viscosity (308.15 K, m1 = 0.2499): 0.8082 ± 0.16 mPa·s | viscosity (308.15 K, m1 = 0.3088): 0.8289 ± 0.17 mPa·s | viscosity (308.15 K, m1 = 0.4795): 0.889 ± 0.18 mPa·s | viscosity (308.15 K, m1 = 0.628): 0.9412 ± 0.19 mPa·s | viscosity (308.15 K, m1 = 0.7511): 0.9846 ± 0.2 mPa·s | viscosity (308.15 K, m1 = 0.8468): 1.018 ± 0.2 mPa·s | viscosity (308.15 K, m1 = 0.9565): 1.057 ± 0.21 mPa·s

O=P([O-])([O-])O.[Na+].[Na+] [disodium hydrogen phosphate] + O
viscosity (288.15 K, m1 = 0.01669): 1.056 ± 0.21 mPa·s | viscosity (288.15 K, m1 = 0.03487): 1.069 ± 0.21 mPa·s | viscosity (288.15 K, m1 = 0.05412): 1.084 ± 0.22 mPa·s | viscosity (288.15 K, m1 = 0.06194): 1.089 ± 0.22 mPa·s | viscosity (288.15 K, m1 = 0.08565): 1.107 ± 0.22 mPa·s | viscosity (288.15 K, m1 = 0.162): 1.164 ± 0.23 mPa·s | viscosity (288.15 K, m1 = 0.255): 1.234 ± 0.25 mPa·s | viscosity (288.15 K, m1 = 0.3161): 1.28 ± 0.26 mPa·s | viscosity (288.15 K, m1 = 0.4813): 1.404 ± 0.28 mPa·s | viscosity (288.15 K, m1 = 0.6261): 1.513 ± 0.3 mPa·s | viscosity (288.15 K, m1 = 0.7501): 1.606 ± 0.32 mPa·s | viscosity (288.15 K, m1 = 0.8501): 1.681 ± 0.34 mPa·s | viscosity (288.15 K, m1 = 0.959): 1.762 ± 0.35 mPa·s | viscosity (293.15 K, m1 = 0.01669): 0.9429 ± 0.19 mPa·s | viscosity (293.15 K, m1 = 0.03487): 0.9556 ± 0.19 mPa·s | viscosity (293.15 K, m1 = 0.05412): 0.969 ± 0.19 mPa·s | viscosity (293.15 K, m1 = 0.06194): 0.9745 ± 0.2 mPa·s | viscosity (293.15 K, m1 = 0.08565): 0.9911 ± 0.2 mPa·s | viscosity (293.15 K, m1 = 0.162): 1.044 ± 0.21 mPa·s | viscosity (293.15 K, m1 = 0.255): 1.109 ± 0.22 mPa·s | viscosity (293.15 K, m1 = 0.3161): 1.152 ± 0.23 mPa·s | viscosity (293.15 K, m1 = 0.4813): 1.268 ± 0.25 mPa·s | viscosity (293.15 K, m1 = 0.6261): 1.369 ± 0.27 mPa·s | viscosity (293.15 K, m1 = 0.7501): 1.456 ± 0.29 mPa·s | viscosity (293.15 K, m1 = 0.8501): 1.525 ± 0.31 mPa·s | viscosity (293.15 K, m1 = 0.959): 1.602 ± 0.32 mPa·s | viscosity (298.15 K, m1 = 0.01669): 0.8421 ± 0.17 mPa·s | viscosity (298.15 K, m1 = 0.03487): 0.8532 ± 0.17 mPa·s | viscosity (298.15 K, m1 = 0.05412): 0.865 ± 0.17 mPa·s | viscosity (298.15 K, m1 = 0.06194): 0.8698 ± 0.17 mPa·s | viscosity (298.15 K, m1 = 0.08565): 0.8843 ± 0.18 mPa·s | viscosity (298.15 K, m1 = 0.162): 0.931 ± 0.19 mPa·s | viscosity (298.15 K, m1 = 0.255): 0.9879 ± 0.2 mPa·s | viscosity (298.15 K, m1 = 0.3161): 1.025 ± 0.21 mPa·s | viscosity (298.15 K, m1 = 0.4813): 1.126 ± 0.23 mPa·s | viscosity (298.15 K, m1 = 0.6261): 1.215 ± 0.24 mPa·s | viscosity (298.15 K, m1 = 0.7501): 1.291 ± 0.26 mPa·s | viscosity (298.15 K, m1 = 0.8501): 1.352 ± 0.27 mPa·s | viscosity (298.15 K, m1 = 0.959): 1.419 ± 0.28 mPa·s | viscosity (303.15 K, m1 = 0.01669): 0.806 ± 0.16 mPa·s | viscosity (303.15 K, m1 = 0.03487): 0.8146 ± 0.16 mPa·s | viscosity (303.15 K, m1 = 0.05412): 0.8238 ± 0.16 mPa·s | viscosity (303.15 K, m1 = 0.06194): 0.8275 ± 0.17 mPa·s | viscosity (303.15 K, m1 = 0.08565): 0.8387 ± 0.17 mPa·s | viscosity (303.15 K, m1 = 0.162): 0.8749 ± 0.18 mPa·s | viscosity (303.15 K, m1 = 0.255): 0.9189 ± 0.18 mPa·s | viscosity (303.15 K, m1 = 0.3161): 0.9479 ± 0.19 mPa·s | viscosity (303.15 K, m1 = 0.4813): 1.026 ± 0.21 mPa·s | viscosity (303.15 K, m1 = 0.6261): 1.095 ± 0.22 mPa·s | viscosity (303.15 K, m1 = 0.7501): 1.154 ± 0.23 mPa·s | viscosity (303.15 K, m1 = 0.8501): 1.201 ± 0.24 mPa·s | viscosity (303.15 K, m1 = 0.959): 1.253 ± 0.25 mPa·s | viscosity (308.15 K, m1 = 0.01669): 0.7281 ± 0.15 mPa·s | viscosity (308.15 K, m1 = 0.03487): 0.7367 ± 0.15 mPa·s | viscosity (308.15 K, m1 = 0.05412): 0.7459 ± 0.15 mPa·s | viscosity (308.15 K, m1 = 0.06194): 0.7496 ± 0.15 mPa·s | viscosity (308.15 K, m1 = 0.08565): 0.7608 ± 0.15 mPa·s | viscosity (308.15 K, m1 = 0.162): 0.797 ± 0.16 mPa·s | viscosity (308.15 K, m1 = 0.255): 0.841 ± 0.17 mPa·s | viscosity (308.15 K, m1 = 0.3161): 0.87 ± 0.17 mPa·s | viscosity (308.15 K, m1 = 0.4813): 0.9483 ± 0.19 mPa·s | viscosity (308.15 K, m1 = 0.6261): 1.017 ± 0.2 mPa·s | viscosity (308.15 K, m1 = 0.7501): 1.076 ± 0.22 mPa·s | viscosity (308.15 K, m1 = 0.8501): 1.123 ± 0.23 mPa·s | viscosity (308.15 K, m1 = 0.959): 1.175 ± 0.24 mPa·s

Source: the NIST ThermoML archive (doi:10.1016/j.jct.2015.10.017)
